Data reported in PubChem BioAssay (NCI).
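Cultured in 96-well plates, cells were exposed to test compound for 48 hours across five concentrations. GI50 = concentration required for 50% inhibition of growth. TGI denotes the concentration required for complete inhibition of growth.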

How the values were obtained:
Test in all cases: NCI tumour cell line growth inhibition, 48 h
SK-MEL-2 melanoma = tested on: SK-MEL-2 melanoma
HCC-2998 colon = tested on: HCC-2998 colon
UO-31 renal = tested on: UO-31 renal
MOLT-4 leukemia = tested on: MOLT-4 leukemia
SF-295 CNS = tested on: SF-295 CNS
NCI-H460 lung = tested on: NCI-H460 lung
MDA-MB-435 = tested on: MDA-MB-435
NCI-H23 lung = tested on: NCI-H23 lung
RXF 393 renal = tested on: RXF 393 renal
HOP-92 NSCLC = tested on: HOP-92 NSCLC
HOP-62 NSCLC = tested on: HOP-62 NSCLC
MALME-3M melanoma = tested on: MALME-3M melanoma
OVCAR-4 ovarian = tested on: OVCAR-4 ovarian
EKVX NSCLC = tested on: EKVX NSCLC
NCI-H226 lung = tested on: NCI-H226 lung
CCRF-CEM leukemia = tested on: CCRF-CEM leukemia
SF-539 CNS = tested on: SF-539 CNS
NCI/ADR-RES ovarian = tested on: NCI/ADR-RES ovarian
RPMI-8226 leukemia = tested on: RPMI-8226 leukemia
BT-549 breast = tested on: BT-549 breast
CAKI-1 renal = tested on: CAKI-1 renal
NCI-H522 lung = tested on: NCI-H522 lung
M14 melanoma = tested on: M14 melanoma
HCT-116 colon = tested on: HCT-116 colon
OVCAR-5 ovarian = tested on: OVCAR-5 ovarian
SK-MEL-5 melanoma = tested on: SK-MEL-5 melanoma
LOX IMVI melanoma = tested on: LOX IMVI melanoma
COLO 205 colon = tested on: COLO 205 colon
SR leukemia = tested on: SR leukemia
HT29 colon = tested on: HT29 colon
786-0 renal = tested on: 786-0 renal
A498 renal = tested on: A498 renal
HL-60(TB) leukemia = tested on: HL-60(TB) leukemia
SN12C renal = tested on: SN12C renal
DU-145 prostate = tested on: DU-145 prostate
KM12 colon = tested on: KM12 colon
MDA-MB-231 breast = tested on: MDA-MB-231 breast
HS 578T breast = tested on: HS 578T breast
ACHN renal = tested on: ACHN renal
SNB-75 CNS = tested on: SNB-75 CNS
UACC-62 melanoma = tested on: UACC-62 melanoma
UACC-257 melanoma = tested on: UACC-257 melanoma
SK-MEL-28 melanoma = tested on: SK-MEL-28 melanoma
TK-10 renal = tested on: TK-10 renal
SW-620 colon = tested on: SW-620 colon
HCT-15 colon = tested on: HCT-15 colon
U251 CNS = tested on: U251 CNS
PC-3 prostate = tested on: PC-3 prostate
T-47D breast = tested on: T-47D breast
A549 NSCLC = tested on: A549 NSCLC
SNB-19 CNS = tested on: SNB-19 CNS
MCF7 breast = tested on: MCF7 breast
SF-268 CNS = tested on: SF-268 CNS
IGROV1 ovarian = tested on: IGROV1 ovarian
SK-OV-3 ovarian = tested on: SK-OV-3 ovarian
K-562 leukemia = tested on: K-562 leukemia

Q: For `CCOP(=O)(OCC)OC[C@]12CCC(C)(C)C=C1[C@H]1CC[C@@H]3[C@@]4(C)CC[C@H](OP(=O)(OCC)OCC)C(C)(C)[C@@H]4CC[C@@]3(C)[C@]1(C)CC2`, which GI50 (SK-MEL-2 melanoma) is on record?
A: 1670 nM

Q: What about the TGI (SK-MEL-2 melanoma) of the same molecule?
A: 3120 nM

Q: What about the GI50 (HCC-2998 colon) of the same molecule?
A: 1390 nM

Q: What about the TGI (HCC-2998 colon) of the same molecule?
A: 2920 nM

Q: And the GI50 (UO-31 renal)?
A: 1360 nM

Q: And the TGI (UO-31 renal)?
A: 2680 nM

Q: What about the GI50 (MOLT-4 leukemia) of the same molecule?
A: 1200 nM

Q: What about the TGI (MOLT-4 leukemia) of the same molecule?
A: 3660 nM

Q: What about the GI50 (SF-295 CNS) of the same molecule?
A: 1410 nM

Q: What about the TGI (SF-295 CNS) of the same molecule?
A: 2770 nM

Q: And the GI50 (NCI-H460 lung)?
A: 1670 nM

Q: And the TGI (NCI-H460 lung)?
A: 3210 nM

Q: And the GI50 (MDA-MB-435)?
A: 1590 nM

Q: What about the TGI (MDA-MB-435) of the same molecule?
A: 2990 nM

Q: What about the GI50 (NCI-H23 lung) of the same molecule?
A: 1190 nM

Q: What about the TGI (NCI-H23 lung) of the same molecule?
A: 2810 nM

Q: And the GI50 (RXF 393 renal)?
A: 1520 nM

Q: And the TGI (RXF 393 renal)?
A: 3080 nM

Q: And the GI50 (HOP-92 NSCLC)?
A: 1160 nM

Q: What about the TGI (HOP-92 NSCLC) of the same molecule?
A: 2530 nM

Q: And the GI50 (HOP-62 NSCLC)?
A: 1610 nM

Q: What about the TGI (HOP-62 NSCLC) of the same molecule?
A: 3140 nM

Q: And the GI50 (MALME-3M melanoma)?
A: 1540 nM

Q: And the TGI (MALME-3M melanoma)?
A: 2960 nM

Q: And the GI50 (OVCAR-4 ovarian)?
A: 1910 nM

Q: What about the TGI (OVCAR-4 ovarian) of the same molecule?
A: 4010 nM

Q: And the GI50 (EKVX NSCLC)?
A: 1480 nM

Q: And the TGI (EKVX NSCLC)?
A: 2910 nM

Q: What about the GI50 (NCI-H226 lung) of the same molecule?
A: 1650 nM

Q: And the TGI (NCI-H226 lung)?
A: 3600 nM

Q: And the GI50 (CCRF-CEM leukemia)?
A: 2300 nM

Q: What about the TGI (CCRF-CEM leukemia) of the same molecule?
A: 8870 nM

Q: What about the GI50 (SF-539 CNS) of the same molecule?
A: 1660 nM

Q: And the TGI (SF-539 CNS)?
A: 3120 nM

Q: What about the GI50 (NCI/ADR-RES ovarian) of the same molecule?
A: 1570 nM

Q: What about the TGI (NCI/ADR-RES ovarian) of the same molecule?
A: 3290 nM

Q: What about the GI50 (RPMI-8226 leukemia) of the same molecule?
A: 547 nM

Q: What about the TGI (RPMI-8226 leukemia) of the same molecule?
A: 3430 nM

Q: And the GI50 (BT-549 breast)?
A: 1460 nM

Q: And the TGI (BT-549 breast)?
A: 2930 nM

Q: What about the GI50 (CAKI-1 renal) of the same molecule?
A: 970 nM

Q: And the TGI (CAKI-1 renal)?
A: 2180 nM

Q: And the GI50 (NCI-H522 lung)?
A: 1640 nM

Q: What about the TGI (NCI-H522 lung) of the same molecule?
A: 3160 nM

Q: What about the GI50 (M14 melanoma) of the same molecule?
A: 1660 nM

Q: And the TGI (M14 melanoma)?
A: 3340 nM

Q: And the GI50 (HCT-116 colon)?
A: 1540 nM

Q: And the TGI (HCT-116 colon)?
A: 3090 nM

Q: What about the GI50 (OVCAR-5 ovarian) of the same molecule?
A: 1480 nM

Q: What about the TGI (OVCAR-5 ovarian) of the same molecule?
A: 2860 nM

Q: And the GI50 (SK-MEL-5 melanoma)?
A: 1680 nM

Q: And the TGI (SK-MEL-5 melanoma)?
A: 3070 nM

Q: What about the GI50 (LOX IMVI melanoma) of the same molecule?
A: 1300 nM

Q: And the TGI (LOX IMVI melanoma)?
A: 2660 nM

Q: And the GI50 (COLO 205 colon)?
A: 1650 nM

Q: And the TGI (COLO 205 colon)?
A: 3230 nM

Q: And the GI50 (SR leukemia)?
A: 866 nM

Q: What about the TGI (SR leukemia) of the same molecule?
A: 5560 nM

Q: And the GI50 (HT29 colon)?
A: 1360 nM

Q: And the TGI (HT29 colon)?
A: 2780 nM

Q: What about the GI50 (786-0 renal) of the same molecule?
A: 1600 nM

Q: And the TGI (786-0 renal)?
A: 3080 nM

Q: What about the GI50 (A498 renal) of the same molecule?
A: 1530 nM

Q: What about the TGI (A498 renal) of the same molecule?
A: 2900 nM

Q: What about the GI50 (HL-60(TB) leukemia) of the same molecule?
A: 611 nM

Q: What about the TGI (HL-60(TB) leukemia) of the same molecule?
A: 3020 nM

Q: What about the GI50 (SN12C renal) of the same molecule?
A: 1350 nM

Q: What about the TGI (SN12C renal) of the same molecule?
A: 2850 nM

Q: And the GI50 (DU-145 prostate)?
A: 1670 nM

Q: And the TGI (DU-145 prostate)?
A: 3050 nM

Q: What about the GI50 (KM12 colon) of the same molecule?
A: 1560 nM

Q: What about the TGI (KM12 colon) of the same molecule?
A: 2930 nM

Q: And the GI50 (MDA-MB-231 breast)?
A: 1410 nM

Q: What about the TGI (MDA-MB-231 breast) of the same molecule?
A: 3040 nM

Q: And the GI50 (HS 578T breast)?
A: 1760 nM

Q: What about the TGI (HS 578T breast) of the same molecule?
A: 4220 nM

Q: What about the GI50 (ACHN renal) of the same molecule?
A: 1630 nM

Q: What about the TGI (ACHN renal) of the same molecule?
A: 2980 nM

Q: What about the GI50 (SNB-75 CNS) of the same molecule?
A: 1370 nM

Q: And the TGI (SNB-75 CNS)?
A: 2690 nM

Q: And the GI50 (UACC-62 melanoma)?
A: 1110 nM

Q: And the TGI (UACC-62 melanoma)?
A: 2490 nM

Q: And the GI50 (UACC-257 melanoma)?
A: 1560 nM

Q: What about the TGI (UACC-257 melanoma) of the same molecule?
A: 3080 nM

Q: And the GI50 (SK-MEL-28 melanoma)?
A: 1540 nM

Q: What about the TGI (SK-MEL-28 melanoma) of the same molecule?
A: 2910 nM

Q: What about the GI50 (TK-10 renal) of the same molecule?
A: 1580 nM

Q: And the TGI (TK-10 renal)?
A: 2980 nM

Q: And the GI50 (SW-620 colon)?
A: 1640 nM

Q: And the TGI (SW-620 colon)?
A: 3140 nM

Q: And the GI50 (HCT-15 colon)?
A: 1430 nM

Q: And the TGI (HCT-15 colon)?
A: 2870 nM

Q: What about the GI50 (U251 CNS) of the same molecule?
A: 1580 nM

Q: What about the TGI (U251 CNS) of the same molecule?
A: 3170 nM

Q: What about the GI50 (PC-3 prostate) of the same molecule?
A: 673 nM

Q: And the TGI (PC-3 prostate)?
A: 2260 nM

Q: And the GI50 (T-47D breast)?
A: 1530 nM

Q: And the TGI (T-47D breast)?
A: 3260 nM

Q: And the GI50 (A549 NSCLC)?
A: 1530 nM

Q: What about the TGI (A549 NSCLC) of the same molecule?
A: 3250 nM

Q: And the GI50 (SNB-19 CNS)?
A: 1550 nM

Q: What about the TGI (SNB-19 CNS) of the same molecule?
A: 3040 nM

Q: And the GI50 (MCF7 breast)?
A: 1480 nM

Q: What about the TGI (MCF7 breast) of the same molecule?
A: 3000 nM

Q: What about the GI50 (SF-268 CNS) of the same molecule?
A: 1550 nM

Q: And the TGI (SF-268 CNS)?
A: 3020 nM

Q: And the GI50 (IGROV1 ovarian)?
A: 1720 nM

Q: And the TGI (IGROV1 ovarian)?
A: 3260 nM

Q: What about the GI50 (SK-OV-3 ovarian) of the same molecule?
A: 1530 nM

Q: What about the TGI (SK-OV-3 ovarian) of the same molecule?
A: 2960 nM

Q: And the GI50 (K-562 leukemia)?
A: 388 nM

Q: What about the TGI (K-562 leukemia) of the same molecule?
A: 3130 nM
